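Grown in 96-well plates, cells were treated for 48 hours with each compound at five concentrations. Insufficient inhibition: endpoint recorded as highest concentration tested. GI50: concentration for 50% inhibition of growth. TGI is the concentration that stops growth completely.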
Legend:
Test in all cases: growth of human tumour cells (NCI), 48 h
[1] = system: 786-0 renal
[2] = system: A498 renal
[3] = system: A549 NSCLC
[4] = system: ACHN renal
[5] = system: BT-549 breast
[6] = system: CAKI-1 renal
[7] = system: CCRF-CEM leukemia
[8] = system: COLO 205 colon
[9] = system: DU-145 prostate
[10] = system: EKVX NSCLC
[11] = system: HCC-2998 colon
[12] = system: HCT-116 colon
[13] = system: HCT-15 colon
[14] = system: HL-60(TB) leukemia
[15] = system: HOP-62 NSCLC
[16] = system: HOP-92 NSCLC
[17] = system: HS 578T breast
[18] = system: HT29 colon
[19] = system: IGROV1 ovarian
[20] = system: K-562 leukemia
[21] = system: KM12 colon
[22] = system: LOX IMVI melanoma
[23] = system: M14 melanoma
[24] = system: MALME-3M melanoma
[25] = system: MCF7 breast
[26] = system: MDA-MB-231 breast
[27] = system: MDA-MB-435
[28] = system: MOLT-4 leukemia
[29] = system: NCI-H226 lung
[30] = system: NCI-H23 lung
[31] = system: NCI-H460 lung
[32] = system: NCI-H522 lung
[33] = system: NCI/ADR-RES ovarian
[34] = system: OVCAR-3 ovarian
[35] = system: OVCAR-4 ovarian
[36] = system: OVCAR-5 ovarian
[37] = system: OVCAR-8 ovarian
[38] = system: PC-3 prostate
[39] = system: RPMI-8226 leukemia
[40] = system: RXF 393 renal
[41] = system: SF-268 CNS
[42] = system: SF-295 CNS
[43] = system: SF-539 CNS
[44] = system: SK-MEL-28 melanoma
[45] = system: SK-MEL-5 melanoma
[46] = system: SK-OV-3 ovarian
[47] = system: SN12C renal
[48] = system: SNB-19 CNS
[49] = system: SNB-75 CNS
[50] = system: SR leukemia
[51] = system: SW-620 colon
[52] = system: T-47D breast
[53] = system: TK-10 renal
[54] = system: U251 CNS
[55] = system: UACC-257 melanoma
[56] = system: UACC-62 melanoma
[57] = system: UO-31 renal

Molecule `COc1ccccc1/C=C/C(=O)/C=C/c1ccccc1O` has a GI50 [1] of 1.6 µM, a TGI [1] of 3.41 µM and a GI50 [2] of 1.8 µM. The TGI [2] was 3.32 µM, the GI50 [3] was 1.27 µM and the TGI [3] was 3.73 µM. For the same molecule, the GI50 [4] was 1.36 µM, the TGI [4] was 2.66 µM and the GI50 [5] was 1.39 µM. The TGI [5] was 3.01 µM, the GI50 [6] was 1.79 µM and the TGI [6] was 5.53 µM. It also gave a GI50 [7] of 0.2 µM, a TGI [7] of 0.544 µM and a GI50 [8] of 1.11 µM. It also gave a TGI [8] of 2.49 µM, a GI50 [9] of 1.02 µM and a TGI [9] of 2.63 µM. It also gave a GI50 [10] of 1.75 µM, a TGI [10] of 5.63 µM and a GI50 [11] of 1.29 µM. For the same molecule, the TGI [11] was 2.64 µM, the GI50 [12] was 0.174 µM and the TGI [12] was 0.379 µM. The GI50 [13] was 0.351 µM, the TGI [13] was 1.64 µM and the GI50 [14] was 0.323 µM. For the same molecule, the GI50 [15] was 3.06 µM, the TGI [15] was 6.63 µM and the GI50 [16] was 1.78 µM. For the same molecule, the TGI [16] was 6.08 µM, the GI50 [17] was 2.25 µM and the TGI [17] was 11.7 µM. It also gave a GI50 [18] of 0.853 µM, a TGI [18] of 2.75 µM and a GI50 [19] of 0.344 µM. It also gave a TGI [19] of 1.92 µM, a GI50 [20] of 0.441 µM and a GI50 [21] of 0.369 µM. It also gave a TGI [21] of 1.5 µM, a GI50 [22] of 0.724 µM and a TGI [22] of 2.01 µM. For the same molecule, the GI50 [23] was 1.46 µM, the TGI [23] was 3.17 µM and the GI50 [24] was 1.82 µM. It also gave a TGI [24] of 5.98 µM, a GI50 [25] of 0.195 µM and a TGI [25] of 1.73 µM. For the same molecule, the GI50 [26] was 1.67 µM, the TGI [26] was 4.26 µM and the GI50 [27] was 1.51 µM. It also gave a TGI [27] of 3.81 µM, a GI50 [28] of 0.163 µM and a GI50 [29] of 1.71 µM. It also gave a TGI [29] of 4.12 µM, a GI50 [30] of 1.5 µM and a TGI [30] of 4.1 µM. For the same molecule, the GI50 [31] was 1.67 µM, the TGI [31] was 4.39 µM and the GI50 [32] was 0.95 µM. For the same molecule, the TGI [32] was 2.21 µM, the GI50 [33] was 2.86 µM and the TGI [33] was 15 µM. The GI50 [34] was 0.314 µM, the TGI [34] was 1 µM and the GI50 [35] was 1.17 µM. It also gave a TGI [35] of 8.83 µM, a GI50 [36] of 2.16 µM and a TGI [36] of 4.39 µM. The GI50 [37] was 1.26 µM, the TGI [37] was 10.4 µM and the GI50 [38] was 0.539 µM. It also gave a TGI [38] of 2.75 µM, a GI50 [39] of 0.164 µM and a TGI [39] of 0.401 µM. The TGI [40] was 0.763 µM, the GI50 [41] was 1.34 µM and the TGI [41] was 6.13 µM. For the same molecule, the GI50 [42] was 1.99 µM, the TGI [42] was 5.23 µM and the GI50 [43] was 1.46 µM. It also gave a TGI [43] of 2.78 µM, a GI50 [44] of 1.56 µM and a TGI [44] of 3.72 µM. It also gave a GI50 [45] of 1.46 µM, a TGI [45] of 2.78 µM and a GI50 [46] of 2.05 µM. It also gave a TGI [46] of 5.6 µM, a GI50 [47] of 1.66 µM and a TGI [47] of 5.65 µM. The GI50 [48] was 1.48 µM, the TGI [48] was 2.94 µM and the GI50 [49] was 0.964 µM. For the same molecule, the TGI [49] was 2.57 µM, the GI50 [50] was 0.39 µM and the TGI [50] was greater than 100 µM. For the same molecule, the GI50 [51] was 0.392 µM, the TGI [51] was 1.47 µM and the GI50 [52] was 0.488 µM. It also gave a TGI [52] of 4.52 µM, a GI50 [53] of 2.72 µM and a TGI [53] of 5.74 µM. For the same molecule, the GI50 [54] was 0.326 µM, the TGI [54] was 1.28 µM and the GI50 [55] was 1.71 µM. The TGI [55] was 3.63 µM, the GI50 [56] was 1.16 µM and the TGI [56] was 2.55 µM. The GI50 [57] was 0.359 µM and the TGI [57] was 1.61 µM.

— PubChem BioAssay (NCI)
